From patent US5447944A, “Carbamoyl-2-pyrrolidinone compounds” (Taiho Pharmaceutical Company, Limited, priority 1988, dated 1995)
Like-named read-outs stand apart in the source and are kept apart here.

Legend:
[1] = Reversal activity of amnesia (Test Example 1): scopolamine-induced amnesia, step-through passive avoidance, antiamnesia effect; type: in vivo, rats (Wistar, males); settings: read-out: Antiamnesia effect [increase ratio (%) of the step-through latency]; for change in vivo at 10 mg/kg: 10 mg/kg oral
Experimental: Reversal activity of amnesia
Groups of 6 to 16 rats (Wistar, males, weighing 170 to 240 g) were used for the experiment.
Scopolamine was used as dissolved in physiological saline, and the test compound as dissolved or suspended in 0.5% solution of sodium carboxymethyl cellulose.
Scopolamine was subcutaneously given at a dose of 0.5 mg/kg 30 minutes before aquisition trials. The test compound was orally given immediately after the aquisition trials.
The rat was subjected to habituation trials about 1 hour before aquisition trials. The habituation was accomplished by placing the rat into the light compartment, opening the door 5 seconds thereafter, closing the door when the four legs completely entered the dark compartment, leaving the rat in the dark compartment for 10 seconds and thereafter taking out the rat. The acquisition trial was accomplished in the same manner as the habituation 1 hour thereafter except that simultaneously when the door was closed upon the movement of the rat into the dark compartment, an unescapable foot shock of 4.5 mA was given to the rat by the floor grit for 1 second.
A retention test was conducted 24 hours after the aquisition trials to measure the step-through latency during which the rat placed into the light compartment remained therein before moving into the dark compartment, i.e., the duration of a passive avoidance reaction.

[2] = Antianoxic activity test (Test Example 2): effect on the survival time under low-oxygen load at atmospheric pressure; type: in vivo, mice (ddY, five-week-old males); settings: read-out: Antianoxia activity [increase ratio (%) of the survival time]
Excerpt: Antianoxic activity test (effect on the survival time under low-oxygen load at atmospheric pressure)
Groups of 10 mice (ddY, five-week-old males) were used for the experiment with reference to Japan Journal of Pharmacology, 81, 421~429 (1983), same, 86, 323~328 (1985) and same, 89, 355~363 (1987). The test compound was orally given to the mouse as dissolved or suspended in 0.5% solution of sodium carboxymethyl cellulose, the mouse was placed into a transparent plastics container (13×13×16 cm) having a vent, and a gas mixture of 96% nitrogen and 4% oxygen was passed through the container at a rate of 5 liters/min.

[3] = Acute toxicity test (Test Example 3); settings: mouse, in vivo
Experimental: Mice (ddY, five-week-old males) were used in groups of 4 to 5 mice each. The test compound was dissolved or suspended in 0.5% solution of sodium carboxymethyl cellulose and administered orally. […] Many of the test compounds produced symptoms of sedation or mascular relaxation for 30 minutes to 6 hours, followed by gradual recovery. The original state was restored two days later.

[4] = rat, retention test 24 hours after acquisition, scopolamine 0.5 mg/kg s.c., vs control group
[5] = 30 mg/kg oral, rat, retention test 24 hours after acquisition, scopolamine 0.5 mg/kg s.c., vs control group
[6] = 100 mg/kg oral, rat, retention test 24 hours after acquisition, scopolamine 0.5 mg/kg s.c., vs control group
[7] = 300 mg/kg oral, rat, retention test 24 hours after acquisition, scopolamine 0.5 mg/kg s.c., vs control group
[8] = 30 mg/kg oral, mouse, 96% nitrogen and 4% oxygen, vs control group
[9] = 100 mg/kg oral, mouse, 96% nitrogen and 4% oxygen, vs control group
[10] = 300 mg/kg oral, mouse, 96% nitrogen and 4% oxygen, vs control group

| SMILES | change in vivo at 30 mg/kg ([1]; Rattus norvegicus, po, 24 h) | change in vivo at 100 mg/kg ([1]; Rattus norvegicus, po, 24 h) | change in vivo at 300 mg/kg ([1]; Rattus norvegicus, po, 24 h) | ILS at 30 mg/kg ([2]; Mus musculus, po) | ILS at 100 mg/kg ([2]; Mus musculus, po) | ILS at 300 mg/kg ([2]; Mus musculus, po) | LD50 at 72 h ([3]; po) | change in vivo at 10 mg/kg [1, 4] | change in vivo at 30 mg/kg [1, 5] | change in vivo at 100 mg/kg [1, 6] | change in vivo at 300 mg/kg [1, 7] | ILS at 30 mg/kg [2, 8] | ILS at 100 mg/kg [2, 9] | ILS at 300 mg/kg [2, 10] | LD50 at 72 h ([3]; oral, observed for 3 days) |
| --- | --- | --- | --- | --- | --- | --- | --- | --- | --- | --- | --- | --- | --- | --- | --- |
| COc1ccc(C(=O)N2CCCC2=O)cc1 [Aniracetam, reference compound] | 230% | 288% | 42% | 19% | 26% | 23% | – | – | – | – | – | – | – | – | – |
| O=C1CCCN1C(=O)Nc1ccccc1 [Compound 1] | – | – | – | – | – | – | > 5000 mg/kg | 360% | 623% | 367% | 230% | -15% | 15% | 39% | – |
| COc1ccc(NC(=O)N2CCCC2=O)cc1 [Compound 2, 1-(4-methoxyphenylcarbamoyl)-2-pyrrolidinone] | – | – | – | – | – | – | – | 346% | 557% | 623% | 507% | 11% | 5% | 27% | > 5000 mg/kg |
| O=C1CCCN1C(=O)Nc1ccc(Cl)cc1 [Compound 3] | – | – | – | – | – | – | > 2000 mg/kg | – | – | – | – | 11% | 15% | 46% | – |
| CN(C)c1ccc(NC(=O)N2CCCC2=O)cc1 [Compound 5] | – | – | – | – | – | – | – | 119% | 598% | 213% | 79% | -4% | 22% | 9% | < 5000 mg/kg |
| COc1ccc(NC(=O)N2CCCC2=O)cc1OC [Compound 6] | – | – | – | – | – | – | > 5000 mg/kg | – | 138% | 568% | 596% | 0% | -4% | 14% | – |
| COc1cc(NC(=O)N2CCCC2=O)cc(OC)c1OC [Compound 7] | – | – | – | – | – | – | 5000 mg/kg | – | -10% | 209% | 345% | 4% | 11% | 66% | – |
| O=C1CCCN1C(=O)Nc1cccc2c1CCCC2 [Compound 8] | – | – | – | – | – | – | > 5000 mg/kg | 125% | 531% | 490% | 414% | 30% | 25% | 20% | – |
| O=C1CCCN1C(=O)Nc1ccncc1 [Compound 9] | – | – | – | – | – | – | – | -7% | 245% | 157% | 41% | 13% | 12% | 16% | < 5000 mg/kg |
| O=C1CCCN1C(=O)Nc1nccs1 [Compound 10] | – | – | – | – | – | – | 5000 mg/kg | – | 166% | 144% | 475% | -4% | -1% | 35% | – |
| O=C1CC(O)CN1C(=O)Nc1ccccc1 (stereo not drawn) [Compound 11, 1-phenylcarbamoyl-4-hydroxy-2-pyrrolidinone] | – | – | – | – | – | – | – | – | 346% | 198% | 518% | 11% | 62% | 96% | – |
| COc1ccc(NC(=O)N2CC(O)CC2=O)cc1 (stereo not drawn) [Compound 12] | – | – | – | – | – | – | – | – | – | – | – | 5% | 7% | 63% | – |
| CC1CCN(C(=O)Nc2ccccc2)C1=O (stereo not drawn) [Compound 13] | – | – | – | – | – | – | > 2000 mg/kg | – | – | – | – | 9% | 87% | 37% | – |
| COc1ccc(NC(=O)N2CCC(C)C2=O)cc1 (stereo not drawn) [Compound 14, 3-methyl-1-(4-methoxyphenylcarbamoyl)-2-pyrrolidinone] | – | – | – | – | – | – | – | – | 75% | 6% | 1% | 9% | 26% | 34% | > 5000 mg/kg |
| COc1ccc(NC(=O)N2C(=O)CCC2C)cc1 (stereo not drawn) [Compound 15] | – | – | – | – | – | – | > 5000 mg/kg | – | 25% | 148% | 672% | -3% | -1% | 11% | – |
| O=C1CCC(CO)N1C(=O)Nc1ccccc1 (stereo not drawn) [Compound 16, 5-hydroxymethyl-1-phenylcarbamoyl-2-pyrrolidinone] | – | – | – | – | – | – | – | – | 135% | 103% | 50% | 10% | 36% | 89% | 5000 mg/kg |
